Measurements: PubChem BioAssay (NCI)
“And” between values parts separate entries of the source, which are not always exact repeats. Equal entries are not always repeated.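 48-hour exposure; five concentrations; linearly interpolated endpoints. GI50: concentration for 50% inhibition of growth. At the TGI there is no net growth.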

What was measured:
Test in all cases: DTP human tumour cell line panel, 48 h
[1] = test system: LOX IMVI melanoma
[2] = test system: COLO 205 colon
[3] = test system: SNB-19 CNS
[4] = test system: SK-MEL-5 melanoma
[5] = test system: SK-MEL-2 melanoma
[6] = test system: RPMI-8226 leukemia
[7] = test system: KM12 colon
[8] = test system: SN12C renal
[9] = test system: HCT-116 colon
[10] = test system: SR leukemia

Compound | GI50 [1] [µM] | TGI [1] [µM] | GI50 [2] | TGI [2] [µM] | GI50 [3] | TGI [3] [µM] | GI50 [4] | TGI [4] | GI50 [5] [µM] | TGI [5] [µM] | GI50 [6] [µM] | TGI [6] [µM] | GI50 [7] | TGI [7] [µM] | GI50 [8] | TGI [8] [µM] | GI50 [9] [µM] | TGI [9] [µM] | TGI [10] [µM] | GI50 [10] [µM]
Cc1csc2[n+]1-c1ccccc1N(C(=O)Nc1ccccc1)C(C)C2 (stereo not drawn) | 21.6 | 48.5 | > 100 µM | > 100 | > 100 µM | > 100 | 42.6 µM | > 100 µM | > 100 | > 100 | 67.5 | > 100 | > 100 µM | > 100 | > 100 µM | > 100 | 16.5 | 31.5 | – | –
CCOC(=O)C(=O)CC1=Nc2ccccc2SC(c2cccc(C)c2)C1 (stereo not drawn) | – | – | – | – | – | 34.6 | – | 36.2 µM | – | 30.5 | – | 67.3 | – | 30.9 | – | 31.2 | – | 27.8 | 60.5 | –
CC(=O)[O-].Cn1ccnc1CNCc1nccn1C.[Cu+2].[O-][Cl+3]([O-])([O-])[O-] | > 100 | > 100 | > 100 µM | > 100 | > 100 µM | > 100 | > 100 µM | > 100 µM | – | – | > 100 | > 100 | > 100 µM | > 100 | > 100 µM | > 100 | > 100 | > 100 | – | –
C[CH2][Ge]([CH2]C)([CH2]C)[O]C(=O)C(OC(C)=O)c1ccccc1 (stereo not drawn) | > 100 | > 100 | > 100 µM | > 100 | > 100 µM | > 100 | 71.6 µM | > 100 µM | – | – | 31 | > 100 | > 100 µM | > 100 | > 100 µM | > 100 | > 100 | > 100 | – | –
CC1=C(SCCC(=O)OC(C[Se]C2=C(C)C(=O)c3ccccc3C2=O)C(=O)NCCCCCC(=O)OCc2ccccc2)C(=O)c2ccccc2C1=O (stereo not drawn) | 2.75 | 11.5 | 7.95 µM | 22.6 | 3.82 µM | 14 | 3.81 µM | 14.9 µM | 5.5 | 18.9 | 2.65 | 7.76 | 1.4 µM | 4.07 | 4.63 µM | 16.7 | 1.99 | 4.6 | – | –
CC(=O)Nc1c(Nc2ccccc2)[nH]c(C)nc1=S | – | > 100 | – | > 100 | – | > 100 | – | > 100 µM | – | > 100 | – | > 100 | – | > 100 | – | > 100 | – | – | – | –
CCOC(=O)Oc1cc2c(c(OC)c1OC)-c1ccc(OC)c(=O)cc1C(NC(C)=O)CC2 (stereo not drawn) | – | > 100 | – | 0.135 | – | 92.4 | – | 0.14 µM | – | > 17.1 | – | 70.6 | – | 1.68 | – | > 100 | – | 1.85 | – | –
O=C(O)[C@H](NS(=O)(=O)c1ccc(F)cc1)c1ccccc1 | – | > 100 | – | > 100 | – | > 100 | – | > 100 µM | – | > 100 | – | > 100 | – | – | – | > 100 | – | > 100 | – | –
C=C/C=C/[C@@H](O)CC(=C)C[C@H]1OC2[C@H](C)[C@@H](OC(=O)C[C@H]3C[C@H](OC(C)=O)C[C@@]4(C[C@@](C)(O)C[C@H](CC(=C)[C@@H](C)[C@H](OC(C)=O)[C@H](C)C(=O)C[C@@H]5C[C@H](OC)CC6(C[C@@H](O)C[C@H](/C=C\CCC[C@H]7O[C@](O)(C=C[C@H]7C)[C@H]2O)O6)O5)O4)O3)[C@@H]1O | – | – | 0.000359 µM and < 0.0025 µM | < 0.0025 | 0.000625 µM and 0.0025 µM | > 25 | 0.000327 µM and 0.0025 µM | 0.00571 µM and 0.00327 µM | 0.0025 | 0.00308 | 0.0025 | 0.0821 | 0.000327 µM and 0.0025 µM | – | 0.000339 µM and 0.0025 µM | – | – | 0.0112 | > 25 | 0.0025
N#C/C(=C/c1ccc2c(c1)OCO2)C(=O)c1ccccc1 | – | – | – | > 100 | – | > 100 | – | > 100 µM | – | > 100 | – | > 100 | – | > 100 | – | > 100 | – | > 100 | – | –
N/C(=N\N=C\c1ccc(C(F)(F)F)cc1)NO | – | – | – | 38.7 | – | – | – | – | – | 92 | – | – | – | > 100 | – | > 100 | – | > 100 | > 100 | –
Cc1cccc(C)c1NC(=O)C1=NC(=S)NC(c2ccccc2)C1c1nc2ccccc2s1 (stereo not drawn) | – | – | – | > 100 | – | > 100 | – | > 100 µM | – | > 100 | – | – | – | > 100 | – | > 100 | – | > 100 | > 100 | –
COc1ccc2c(c1)c(-c1nc(-c3c[nH]c4ccncc34)cs1)cn2C | – | – | – | – | 1.85 µM | 3.36 | 1.65 µM | 3.02 µM | 1.84 | 3.4 | 1.83 | 3.83 | 1.73 µM | 3.2 | 1.69 µM | 3.24 | 1.69 | 3.22 | – | –
COCN1COCN=C1NC#N | – | – | – | > 100 | – | > 100 | – | > 100 µM | – | > 100 | – | > 100 | – | > 100 | – | > 100 | – | > 100 | > 100 | –
COC(=O)c1ccc(CN2C(=O)C(Cl)=C(Nc3cccc(Cl)c3C)C2=O)cc1 | 32.3 | > 100 | 19.7 µM | > 100 | > 100 µM | > 100 | 1.08 µM | 3.94 µM | 3.48 | 21.9 | 3.76 | 48.2 | 4.03 µM | > 100 | 18.2 µM | 55.4 | 4.44 | > 100 | – | –
O=C1N2Cc3c4ccc5c3CN3C(=O)N6Cc7c(ccc(c7CN1C6(c1ccccc1)C23c1ccccc1)OCCOCCNCCOCCO4)OCCOCCNCCOCCO5 (stereo not drawn) | – | – | – | – | – | > 100 | – | > 100 µM | – | > 100 | – | 92.2 | – | > 100 | – | 89.1 | – | > 100 | > 100 | –
COC(=O)C1Cc2c(n(C)c3ccccc23)C(CCC(=O)O)N1Cc1ccccc1 (stereo not drawn) | – | > 100 | – | 71.9 | – | 97.3 | – | 79.5 µM | – | > 100 | – | 75.2 | – | 81.4 | – | > 100 | – | 43.2 | – | –
CC1/C(=N\O)CC(c2ccccc2)N(C)C1c1ccccc1 (stereo not drawn) | – | > 100 | – | > 100 | – | > 100 | – | > 100 µM | – | > 100 | – | – | – | > 100 | – | > 100 | – | > 100 | – | –
O=C1C(c2ccc(Br)cc2)=[N+]([O-])c2ccccc21 | – | 21.7 | – | 32.2 | – | 42.3 | – | 21.6 µM | – | 57.6 | – | > 100 | – | 30.4 | – | 29.6 | – | 27.5 | – | –
CN(c1ccc(C(=O)c2ccc(N(C)S(C)(=O)=O)cc2)cc1)S(C)(=O)=O | – | – | – | > 100 | – | > 100 | – | 78.4 µM | – | > 100 | – | > 100 | – | > 100 | – | > 100 | – | > 100 | > 100 | –
CCOC(=O)c1cc2c(cc1Cl)SC(=Nc1ccccc1)N(S(=O)(=O)c1ccc(Cl)cc1)S2(=O)=O | 3.17 | 15 | 9.06 µM | > 100 | 20.2 µM | > 100 | 9.5 µM | 21.6 µM | 12.1 | 30.4 | 4.26 | 19.4 | 15.1 µM | 30.4 | 15.4 µM | 33.2 | 6.32 | 21.9 | – | –
CCOP(=O)(OCC)C1CCCOC1=O (stereo not drawn) | – | > 100 | – | > 100 | – | > 100 | – | > 100 µM | – | > 100 | – | > 100 | – | > 100 | – | > 100 | – | > 100 | – | –
COc1cc(/C=C/C(=O)/C=C/c2ccc(-n3ccnc3C)cc2)ccc1O | – | – | 3.4 µM | 12.1 | 4.62 µM | 86.3 | 3.25 µM | 11.9 µM | 26 | 84.2 | 1.84 | 6.1 | 2.07 µM | 4.25 | 2.36 µM | 6.63 | – | – | > 100 | 2.55
CNC(=O)c1c(NC(=O)c2ccc(C(C)(C)C)cc2)sc2c(CN(C)C)c(O)ccc12 | 1.13 | 2.38 | 2.1 µM | 4.3 | – | – | 1.81 µM | 3.25 µM | 2.1 | 4.28 | – | – | 1.78 µM | 3.2 | – | – | 0.936 | 2.43 | 3.5 | 0.99
O=C([CH-]C(=O)c1ccccc1)c1ccccc1.[CH-]1CCCCC1.[CH-]1CCCCC1.[CH-]1CCCCC1.[Sn+4] | 4.61 | 18.9 | 4.15 µM | 16.2 | 5.43 µM | 18.4 | 6.58 µM | 19.1 µM | 3.39 | 11.9 | 2.32 | 5.22 | 10.8 µM | 24.2 | 4.35 µM | 16.1 | 6.3 | 19.9 | – | –
CC1=C(C(=O)Nc2ccccc2)C(c2cccc3ccccc23)C(C(=O)Nc2ccccc2)=C(C)N1 | – | 30.4 | – | 26.6 | – | 72.5 | – | 33.4 µM | – | 34.7 | – | – | – | – | – | 33.3 | – | 28.7 | 22.6 | –
COC(=O)N/N=C(\C)c1c(O)cc(C)oc1=O | – | 44.5 | – | – | – | > 100 | – | > 100 µM | – | > 100 | – | – | – | > 100 | – | > 100 | – | > 100 | > 100 | –
